This is an account of results in patent US11253495B2, “Pharmaceutical composition for treating excessive lactate production and acidemia” (priority 2018, dated 2022).

One assay has as its system phenformin intoxication. Kind of assay: Phenformin intoxication and severe lactate acidemia in mice: survival time, serum lactate, serum pH. The assay is classed as in vivo, CD-1 mice. The settings on record: doses of Table 4, vs G1 saline; for Serum lactate at 1 hour after phenformin intoxication: FIG. 14, combination vs single agent; for Serum pH value at 1 hour after phenformin intoxication: FIG. 15. As for the experimental part:
CD-1 mice (20-25 gram) were used. All mice were pre-treated according to the Table 4.
10 minutes after treatment, intoxication of severe lactate acidemia was induced by injecting phenformin chloride (concentration 20 mg/ml) at dose of 200 mg/kg intraperitoneally. At 1 hour after phenformin injection, serum lactate and pH were measured.

The next assay has as its system cardiac arrest rat model. Put plainly: Cardiac arrest rat model with CPR: mortality, brain death score, serum lactate and pH, organ ATP. Type of assay: in vivo. Particulars: for Serum lactate: FIG. 2, 24 hours after ROSC or right before death, vs G1 saline, combination vs single agent; for Mortality at 24 hours after ROSC: rats, 7 min cardiac arrest, iv treatment 10 minutes after ROSC, doses of Table 1, n=8 each group.

In assay [1] the test system is focal cerebral ischemia rat model. Put plainly: Focal cerebral ischemia rat model (3 h MCA occlusion, 21 h reperfusion): behavioral deficit, infarct size, serum lactate, brain ATP. Type of assay: in vivo. The settings on record: FIG. 10; 24 hours after ischemia; vs G1 saline; combination vs single agent. As to the method:
180-230 g CD rats were used. Ketamine/xylazine 30 mg/kg ip was given for anesthesia in each rat. A midline incision on the neck was made. The left common carotid artery, the external carotid artery (ECA) and the internal carotid artery (ICA) were exposed. The ECA was ligated and severed. Focal cerebral ischemia was produced by a 3.0 nylon suture that was advanced from the ECA to ICA to block the origin of left middle cerebral artery. The nylon suture was left in place to induce focal cerebral ischemia on left hemisphere supplied by middle cerebral artery. The ischemia lasted for 3 hours, the nylon suture was then removed to allow blood reperfusion for 21 hours.
This treatment time point is one hour before restoring blood flow (reperfusion).
At 24 hours after cerebral ischemia, each rat was evaluated for behavioral deficits. A score of 0-4 was used to assess the motor and behavioral changes. Score 0: No apparent deficits, Score 1: Contralateral forelimb flexion, Score 2: Decreased grip of the contralateral forelimb when the tail is pulled, Score 3: Spontaneous movement in all directions; contralateral circling only if pulled by tail and Score 4: Spontaneous contralateral circling.
At 24 hours after ischemia, blood samples were collected, serum lactate, was measured using blood chemistry analyzer. LDH was measured using colorimetric method.
After blood samples collection, each rat was euthanized. The brain was excised. A small piece of the cortex in ischemic core was obtained, weighed and then homogenized at 0° C. The ATP content was evaluated using ATP content measurement using luciferase-luciferin luminescence detection assay.
Each brain was immediately cut into 6 coronal sections (1 mm in thickness) and stained with 1% 2,3,5-triphenyltetrazolium chloride (TTC) in PBS solution at 37° C. for 10 minutes. The infarct size was identified as the non-TTC-stained area, the infarction percentage (%) was calculated by the ratio of area of infarction size to area of whole brain.

Regarding `N#Cc1cc(NC(=O)C(=O)O)c(Cl)c(NC(=O)C(=O)O)c1.NC(CO)(CO)CO.NC(CO)(CO)CO` [Lodoxamide tromethamine], the “Serum lactate at 1 hour after phenformin intoxication” value (“Serum lactate at 1 hour” below) with phenformin intoxication is listed as “reduce lactate production”.
Take `Cc1ncc(COP(=O)(O)O)c(C=O)c1O` [PLP, pyridoxal 5′-phosphate]: the Serum lactate result with cardiac arrest rat model is reported as “reduce lactate production”. Further, the Serum lactate content entry in assay [1] is on record as “reduce lactate production”. In addition, in the assay on phenformin intoxication, the “Serum lactate at 1 hour” value was “reduce lactate production”.
With `N[C@@H](CCC(=O)[O-])C(=O)[O-].[Na+].[Na+]` [Sodium glutamate], in the assay with cardiac arrest rat model, the Serum lactate entry is “reduce lactate production” and the “Mortality at 24 hours after ROSC” value is on record as 1 out of 8. For the same compound, in assay [1], the Serum lactate content result is listed as “reduce lactate production”. In addition, in the assay on phenformin intoxication, the “Serum lactate at 1 hour” value is “reduce lactate production” and the “Serum pH value at 1 hour after phenformin intoxication” value was “particularly effective”.
Consider `NC(=O)C(=O)[O-].[Na+]` [Sodium oxamate], for which, in the assay on cardiac arrest rat model, the Serum lactate result is “reduce lactate production” and the “Mortality at 24 hours after ROSC” value is listed as 1 out of 8. Moreover, the Serum lactate content result in assay [1] is recorded as “reduce lactate production”. Moreover, in the assay with phenformin intoxication, the “Serum lactate at 1 hour” value was “reduce lactate production”.
With `O=C([O-])CC(=O)C(=O)O.[Na+]` [oxaloacetate, Sodium oxaloacetate], the Serum lactate entry in the assay on cardiac arrest rat model is “reduce lactate production”. Further, in assay [1], the Serum lactate content result is on record as “reduce lactate production”. The “Serum lactate at 1 hour” value in the assay on phenformin intoxication is recorded as “reduce lactate production”.
As to `N[C@@H](CC(=O)[O-])C(=O)[O-].[Na+].[Na+]` [sodium aspartate, Sodium Aspartate], the Serum lactate entry with cardiac arrest rat model is on record as “reduce lactate production”. For the same compound, the Serum lactate content entry in assay [1] is listed as “reduce lactate production”. In the assay on phenformin intoxication, the “Serum lactate at 1 hour” value is given as “reduce lactate production” and the “Serum pH value at 1 hour after phenformin intoxication” value is reported as “particularly effective”.
